From patent US8697694B2, “Substituted pyridine and pyrimidine derivatives and their use in treating viral infections” (priority 2008, dated 2014)

The compounds below were run on HCV replicon cells (assay: Cell-based HCV replicon assay (replicon RNA level by real time PCR, Taqman)). Details: HCV replicon cells, harvested day 3, replicon RNA by real time PCR; reported as range class; read-out: EC90 (μM) range.
Method in brief: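 HCV replicon cells treated 3 days with 10 serial 2-fold compound dilutions (top 25 μM to 1 μM; 0.5% DMSO, 10% FBS). Replicon RNA quantified by multiplex Taqman RT-PCR (NS5B amplicon, GAPDH control); EC50 and EC90 = concentrations giving ΔCT of 1 and 3.2 over baseline.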

For `COc1cc2cc(-c3c(Cl)nc(N(C)C)nc3N[C@@H]3C[C@H](CO)[C@@H](O)[C@H]3O)oc2c(C)n1` [Example 12], the EC90 was 0.5 to 5 µM.

Same assay, conditions: Hepatitis C virus, 72 h, HCV replicon cells, harvested day 3, replicon RNA by real time PCR; reported as range class; read-out: EC90 (μM) range

Going from `CC(C)CNc1nc(Cl)c(-c2nc3ccccc3s2)c(N[C@@H]2C[C@H](CO)[C@@H](O)[C@H]2O)n1` [Example 320] to `CNc1nc(Cl)c(-c2nc3ccccc3s2)c(N(C)[C@@H]2C[C@H](CO)[C@@H](O)[C@H]2O)n1` [Example 404], the EC90 rises from under 0.5 µM to over 5 µM.

First: Cc1cncc2oc(-c3c(Cl)nc(N)nc3N[C@@H]3C[C@H](CO)[C@@H](O)[C@H]3O)cc12 [Example 304]
Second: Cc1cc2cc(-c3c(Cl)nc(N)nc3N[C@@H]3C[C@H](CO)[C@@H](O)[C@H]3O)oc2cn1 [Example 306]
The EC90 of the first is higher: over 5 µM for the first, under 0.5 µM for the second.

`CNc1nc(C)c(-c2cc3cc(OC)nc(C)c3o2)c(N[C@@H]2C[C@H](CO)[C@@H](O)[C@H]2O)n1` [Example 17] and `CNc1nc(Cl)c(-c2cc3cc(OC)nc(C)c3o2)c(N[C@@H]2C[C@H](CO)[C@@H](O)[C@H]2O)n1` [Example 15] cannot be ordered by EC90: under 0.5 µM for the first, under 0.5 µM for the second.

`CNC(=O)c1ccc2cc(-c3c(Cl)nc(N)nc3N[C@@H]3C[C@H](CO)[C@@H](O)[C@H]3O)oc2c1` [Example 177] and `Nc1nc(Cl)c(-c2cc3cc(F)cc(F)c3o2)c(N[C@@H]2C[C@H](CO)[C@@H](O)[C@H]2O)n1` [Example 170] cannot be ordered by EC90: over 5 µM for the first, over 5 µM for the second.

`COCCNc1nc(Cl)c(-c2cc3cc(OC)nc(C)c3o2)c(N[C@@H]2C[C@H](CO)[C@@H](O)[C@H]2O)n1` [Example 18] and `CCc1cc2cc(-c3c(Cl)nc(N)nc3N[C@@H]3C[C@H](CO)[C@@H](O)[C@H]3O)oc2c(CC)n1` [Example 407] cannot be ordered by EC90: under 0.5 µM for the first, under 0.5 µM for the second.

First: CC1(C)O[C@@H]2[C@@H](CO)C[C@@H](Nc3nc(N)nc(-c4nc5c(F)cc(F)cc5s4)c3-c3nc4c(F)cc(F)cc4s3)[C@@H]2O1 [Example 185]
Second: CNc1ccc2nc(-c3c(Cl)nc(N)nc3N[C@@H]3C[C@H](CO)[C@@H](O)[C@H]3O)sc2c1 [Example 196]
The EC90 of the first is higher: over 5 µM for the first, under 0.5 µM for the second.

Same assay, conditions: Hepatitis C virus, 72 h, HCV replicon cells, harvested on day 3, replicon RNA by real time PCR; calculated EC90 reported as range class; read-out: EC90 (μM) range

First: Cc1nc(NCCNC(=O)OCc2ccccc2)nc(N[C@@H]2C[C@H](CO)[C@@H](O)[C@H]2O)c1-c1nc2ccccc2s1 [Example 254]
Second: CCOC(=O)NCCNc1nc(C)c(-c2nc3ccccc3s2)c(N[C@@H]2C[C@H](CO)[C@@H](O)[C@H]2O)n1 [Example 256]
The EC90 of the first is higher: 0.5 to 5 µM for the first, under 0.5 µM for the second.

`CCCCNc1nc(Cl)c(-c2nc3ccccc3s2)c(N[C@@H]2C[C@H](CO)[C@@H](O)[C@H]2O)n1` [Example 432] and `CCCCNc1nc(C)c(-c2nc3ccccc3s2)c(N[C@@H]2C[C@H](CO)[C@@H](O)[C@H]2O)n1` [Example 434] cannot be ordered by EC90: under 0.5 µM for the first, under 0.5 µM for the second.

`Cc1cc2cc(-c3c(C)nc(NCC(F)(F)F)nc3N[C@@H]3C[C@H](CO)[C@@H](O)[C@H]3O)oc2c(C)n1` [Example 457] and `CCc1cc2cc(-c3c(C)nc(NCC(F)(F)F)nc3N[C@@H]3C[C@H](CO)[C@@H](O)[C@H]3O)oc2cn1` [Example 517] cannot be ordered by EC90: under 0.5 µM for the first, under 0.5 µM for the second.

`Cc1nc(NCC2CC2)nc(N[C@@H]2C[C@H](CO)[C@H]3OC(C)(C)O[C@H]32)c1-c1cc2cc(C(F)(F)F)ncc2o1` [Example 141] and `Cc1nc(NC(CF)CF)nc(N[C@@H]2C[C@H](CO)[C@H]3OC(C)(C)O[C@H]32)c1-c1nc2ccccc2s1` [Example 136] fall in the same range of EC90: 0.5 to 5 µM for the first, 0.5 to 5 µM for the second.

`OC[C@H]1C[C@@H](Nc2nc(NCC3CCOCC3)nc(Cl)c2-c2nc3ccccc3s2)[C@H](O)[C@@H]1O` [Example 447] and `CO[C@H](C)CNc1nc(Cl)c(-c2nc3ccccc3s2)c(N[C@@H]2C[C@H](CO)[C@@H](O)[C@H]2O)n1` [Example 230] cannot be ordered by EC90: under 0.5 µM for the first, under 0.5 µM for the second.

Work on `CCCCCCNc1nc(C)c(-c2nc3ccccc3s2)c(N[C@@H]2C[C@H](CO)[C@@H](O)[C@H]2O)n1` [Example 455] yielded an EC90 of under 0.5 µM.

Same assay, conditions: Hepatitis C virus, 72 h, HCV replicon cells, replicon RNA level by real time PCR (Taqman), day 3; calculated EC90; read-out: EC90 (μM) range

`Cc1ccc([C@H](Nc2nc(C)c(-c3nc4ccccc4s3)c(N[C@@H]3C[C@H](CO)[C@@H](O)[C@H]3O)n2)C(F)(F)F)cc1` [Example 2005] and `Cc1nc(NCC2CC2)nc(N[C@@H]2C[C@H](CO)[C@@H](O)[C@H]2O)c1-c1nc2cnccc2o1` [Example 2003] fall in the same range of EC90: 0.5 to 5 µM for the first, 0.5 to 5 µM for the second.

Same assay, conditions: Hepatitis C virus, 72 h, HCV replicon cells, replicon RNA level by real time PCR (Taqman), harvested on day 3; calculated EC90 reported as range class; read-out: EC90 (μM) range

`COc1cc(OC)cc([C@@H](C)Nc2nc(C)c(-c3nc4cnccc4s3)c(N[C@@H]3C[C@H](CO)[C@@H](O)[C@H]3O)n2)c1` [Example 1307] and `Cc1nc(N[C@H](C)c2ccccc2)nc(N[C@@H]2C[C@H](CO)[C@@H](O)[C@H]2O)c1-c1nc2cnccc2s1` [Example 543] cannot be ordered by EC90: under 0.5 µM for the first, under 0.5 µM for the second.

Compared with `Cc1nc(NCc2cccc(O)c2)nc(N[C@@H]2C[C@H](CO)[C@@H](O)[C@H]2O)c1-c1nc2ccccc2s1` [Example 1212], `Cc1nc(NCC(=O)O)nc(N[C@@H]2C[C@H](CO)[C@@H](O)[C@H]2O)c1-c1nc2ccccc2s1` [Example 1011] is higher in EC90: under 0.5 µM for the first, 0.5 to 5 µM for the second.

`CCc1nccc2sc(-c3c(C)nc(NCC4CC4)nc3N[C@@H]3C[C@H](CO)[C@@H](O)[C@H]3O)nc12` [Example 1333] and `COCCNc1nc(C)c(-c2nc3cnccc3s2)c(N[C@@H]2C[C@H](CO)[C@@H](O)[C@H]2O)n1` [Example 526] cannot be ordered by EC90: under 0.5 µM for the first, under 0.5 µM for the second.

First: Cc1nc(NCc2ccco2)nc(N[C@@H]2C[C@H](CO)[C@H]3OC(C)(C)O[C@H]32)c1-c1nc2ccccc2s1 [Example 1109]
Second: Cc1nc(NCc2cccc(CN(C)C)c2)nc(N[C@@H]2C[C@H](CO)[C@H]3OC(C)(C)O[C@H]32)c1-c1nc2ccccc2s1 [Example 1118]
The EC90 of the first is lower: 0.5 to 5 µM for the first, over 5 µM for the second.

Compared with `CCOCCNc1nc(C)c(-c2ccc3ccccc3n2)c(N[C@@H]2C[C@H](CO)[C@@H](O)[C@H]2O)n1` [Example 1324], `CCOCCNc1nc(C)c(-c2nc3cc(OC)ccc3s2)c(N[C@@H]2C[C@H](CO)[C@@H](O)[C@H]2O)n1` [Example 1008] is lower in EC90: over 5 µM for the first, 0.5 to 5 µM for the second.

First: COc1cnccc1Nc1nc(C)c(-c2nc3ccccc3s2)c(N[C@@H]2C[C@H](CO)[C@H]3OC(C)(C)O[C@H]32)n1 [Example 1130]
Second: Cc1nc(NC(C)(C)c2ccccc2)nc(N[C@@H]2C[C@H](CO)[C@@H](O)[C@H]2O)c1-c1nc2cnccc2s1 [Example 1229]
The EC90 of the first is higher: over 5 µM for the first, 0.5 to 5 µM for the second.

First: Cc1nc(NCC(F)(F)F)nc(N[C@@H]2C[C@H](COC(=O)[C@@H](N)C(C)C)[C@@H](O)[C@H]2O)c1-c1nc2ccccc2s1 [Example 1133]
Second: Cc1nc(Nc2ccccc2OC(F)(F)F)nc(N[C@@H]2C[C@H](CO)[C@@H](O)[C@H]2O)c1-c1nc2ccccc2s1 [Example 1236]
The EC90 of the first is lower: 0.5 to 5 µM for the first, over 5 µM for the second.

First: Cc1nc(NCc2cccs2)nc(N[C@@H]2C[C@H](CNS(C)(=O)=O)[C@@H](O)[C@H]2O)c1-c1nc2ccccc2s1 [Example 1330]
Second: Cc1nc(N)nc(N[C@@H]2C[C@H](CO)[C@@H](O)[C@H]2O)c1-c1nc2cnccc2s1 [Example 1325]
The EC90 of the first is lower: under 0.5 µM for the first, 0.5 to 5 µM for the second.

`Cc1nc(NCC(C)(C)C)nc(N[C@@H]2CC[C@@H](O)[C@H]2O)c1-c1nc2cnccc2s1` [Example 1213] showed an EC90 of over 5 µM.

Same assay, conditions: Hepatitis C virus, 72 h, HCV replicon cells, replicon RNA level by real time PCR, harvested day 3; read-out: EC90 (μM) range

First: Cc1nc(NCc2cc3cnn(C(=O)OC(C)(C)C)c3cc2F)nc(N[C@@H]2C[C@H](CO)[C@H]3OC(C)(C)O[C@H]32)c1-c1nc2ccccc2s1 [Example 1908]
Second: Cc1nc(NCc2c(F)cccc2F)nc(N[C@@H]2C[C@H](CO)[C@@H](O)[C@H]2O)c1-c1nc2ccccc2s1 [Example 1910]
The EC90 of the first is higher: 0.5 to 5 µM for the first, under 0.5 µM for the second.

Compared with `CCO[C@@H]1[C@H](O)[C@@H](CO)C[C@H]1Nc1nc(NCC(F)(F)F)nc(C)c1-c1nc2ccccc2s1` [Example 1352], `CCS(=O)(=O)NC[C@H]1C[C@@H](Nc2nc(NCC(F)(F)F)nc(C)c2-c2nc3ccccc3s2)[C@H](O)[C@@H]1O` [Example 1521] is higher in EC90: under 0.5 µM for the first, 0.5 to 5 µM for the second.

`CCCc1nccc2sc(-c3c(C)nc(N[C@H](C)C4CC4)nc3N[C@@H]3C[C@H](Cn4ccnn4)[C@@H](O)[C@H]3O)nc12` [Example 1386] and `CCCc1nccc2sc(-c3c(C)nc(N[C@H](C)C4CC4)nc3N[C@@H]3C[C@H](CO)[C@@H](O)[C@H]3O)nc12` [Example 1346] cannot be ordered by EC90: under 0.5 µM for the first, under 0.5 µM for the second.

`Cc1nc(NCC2CC2)nc(N[C@@H]2C[C@H](C)[C@@H](O)[C@H]2O)c1-c1nc2cnccc2s1` [Example 1634] and `Cc1ccc(CCNc2nc(C)c(-c3nc4cnccc4s3)c(N[C@@H]3C[C@H](CO)[C@@H](O)[C@H]3O)n2)s1` [Example 1813] cannot be ordered by EC90: under 0.5 µM for the first, under 0.5 µM for the second.

Compared with `Cc1nc(NCC(F)(F)F)nc(N[C@@H]2C[C@H](CNS(=O)(=O)C(F)(F)F)[C@@H](O)[C@H]2O)c1-c1nc2ccccc2s1` [Example 1523], `Cc1nc(NCC(F)(F)F)nc(N[C@@H]2C[C@H](CNS(=O)(=O)CCN)[C@@H](O)[C@H]2O)c1-c1nc2ccccc2s1` [Example 1518] is higher in EC90: 0.5 to 5 µM for the first, over 5 µM for the second.

`CCOc1ccc(CCNc2nc(C)c(-c3nc4cnccc4s3)c(N[C@@H]3C[C@H](CO)[C@@H](O)[C@H]3O)n2)cc1` [Example 1705] and `CCc1nccc2sc(-c3c(C)nc(NCC(F)(F)F)nc3N[C@@H]3C[C@H](CO)[C@@H](O)[C@H]3O)nc12` [Example 1340] cannot be ordered by EC90: under 0.5 µM for the first, under 0.5 µM for the second.

`Cc1nc(O)nc(N[C@@H]2C[C@H](CO)[C@@H](O)[C@H]2O)c1-c1nc2ccccc2s1` [Example 1605] and `Cc1nc(NCC(F)(F)F)nc(N[C@@H]2C[C@H](CO)[C@@H](O)[C@H]2O)c1-c1cc2ccccc2s1` [Example 1604] cannot be ordered by EC90: over 5 µM for the first, over 5 µM for the second.

First: CCCc1nccc2sc(-c3c(C)nc(N[C@H](C)C4CC4)nc3N[C@@H]3C[C@H](CNS(C)(=O)=O)[C@@H](O)[C@H]3O)nc12 [Example 1387]
Second: Cc1nc(NCC(F)(F)F)nc(N[C@@H]2CC[C@@H](O)[C@@]2(C)O)c1-c1nc2cnccc2s1 [Example 1809]
The EC90 of the first is lower: under 0.5 µM for the first, 0.5 to 5 µM for the second.
